# Data published in patent publication US8962641B2, “Pyrimidine-substituted pyrrolidine derivatives, pharmaceutical compositions and uses thereof” (Boehringer Ingelheim International GmbH, priority 2013, dated 2015).
# Target: human ACC2 (Homo sapiens (Human), UniProt O00763)
# Assay: ACC2 assay (spectrophotometric 384 well assay, NADH-linked kinetic method)
# Type: biochemical
# Conditions: hACC2 construct lacking 128 N-terminal amino acids; coupled lactate dehydrogenase/pyruvate kinase reaction, 340 nm, 25° C.
# Method in brief: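 Baculovirus/insect-cell human ACC2, anion-exchange purified; ADP formation coupled to pyruvate kinase/lactate dehydrogenase, NADH loss followed at 340 nm, 25° C, 15 min. Final 200 μM NADH and acetyl-CoA, 500 uM ATP; vehicle and no-acetyl-CoA wells set 100% and 0%.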
# human ACC2, sequence (O00763 129-2458): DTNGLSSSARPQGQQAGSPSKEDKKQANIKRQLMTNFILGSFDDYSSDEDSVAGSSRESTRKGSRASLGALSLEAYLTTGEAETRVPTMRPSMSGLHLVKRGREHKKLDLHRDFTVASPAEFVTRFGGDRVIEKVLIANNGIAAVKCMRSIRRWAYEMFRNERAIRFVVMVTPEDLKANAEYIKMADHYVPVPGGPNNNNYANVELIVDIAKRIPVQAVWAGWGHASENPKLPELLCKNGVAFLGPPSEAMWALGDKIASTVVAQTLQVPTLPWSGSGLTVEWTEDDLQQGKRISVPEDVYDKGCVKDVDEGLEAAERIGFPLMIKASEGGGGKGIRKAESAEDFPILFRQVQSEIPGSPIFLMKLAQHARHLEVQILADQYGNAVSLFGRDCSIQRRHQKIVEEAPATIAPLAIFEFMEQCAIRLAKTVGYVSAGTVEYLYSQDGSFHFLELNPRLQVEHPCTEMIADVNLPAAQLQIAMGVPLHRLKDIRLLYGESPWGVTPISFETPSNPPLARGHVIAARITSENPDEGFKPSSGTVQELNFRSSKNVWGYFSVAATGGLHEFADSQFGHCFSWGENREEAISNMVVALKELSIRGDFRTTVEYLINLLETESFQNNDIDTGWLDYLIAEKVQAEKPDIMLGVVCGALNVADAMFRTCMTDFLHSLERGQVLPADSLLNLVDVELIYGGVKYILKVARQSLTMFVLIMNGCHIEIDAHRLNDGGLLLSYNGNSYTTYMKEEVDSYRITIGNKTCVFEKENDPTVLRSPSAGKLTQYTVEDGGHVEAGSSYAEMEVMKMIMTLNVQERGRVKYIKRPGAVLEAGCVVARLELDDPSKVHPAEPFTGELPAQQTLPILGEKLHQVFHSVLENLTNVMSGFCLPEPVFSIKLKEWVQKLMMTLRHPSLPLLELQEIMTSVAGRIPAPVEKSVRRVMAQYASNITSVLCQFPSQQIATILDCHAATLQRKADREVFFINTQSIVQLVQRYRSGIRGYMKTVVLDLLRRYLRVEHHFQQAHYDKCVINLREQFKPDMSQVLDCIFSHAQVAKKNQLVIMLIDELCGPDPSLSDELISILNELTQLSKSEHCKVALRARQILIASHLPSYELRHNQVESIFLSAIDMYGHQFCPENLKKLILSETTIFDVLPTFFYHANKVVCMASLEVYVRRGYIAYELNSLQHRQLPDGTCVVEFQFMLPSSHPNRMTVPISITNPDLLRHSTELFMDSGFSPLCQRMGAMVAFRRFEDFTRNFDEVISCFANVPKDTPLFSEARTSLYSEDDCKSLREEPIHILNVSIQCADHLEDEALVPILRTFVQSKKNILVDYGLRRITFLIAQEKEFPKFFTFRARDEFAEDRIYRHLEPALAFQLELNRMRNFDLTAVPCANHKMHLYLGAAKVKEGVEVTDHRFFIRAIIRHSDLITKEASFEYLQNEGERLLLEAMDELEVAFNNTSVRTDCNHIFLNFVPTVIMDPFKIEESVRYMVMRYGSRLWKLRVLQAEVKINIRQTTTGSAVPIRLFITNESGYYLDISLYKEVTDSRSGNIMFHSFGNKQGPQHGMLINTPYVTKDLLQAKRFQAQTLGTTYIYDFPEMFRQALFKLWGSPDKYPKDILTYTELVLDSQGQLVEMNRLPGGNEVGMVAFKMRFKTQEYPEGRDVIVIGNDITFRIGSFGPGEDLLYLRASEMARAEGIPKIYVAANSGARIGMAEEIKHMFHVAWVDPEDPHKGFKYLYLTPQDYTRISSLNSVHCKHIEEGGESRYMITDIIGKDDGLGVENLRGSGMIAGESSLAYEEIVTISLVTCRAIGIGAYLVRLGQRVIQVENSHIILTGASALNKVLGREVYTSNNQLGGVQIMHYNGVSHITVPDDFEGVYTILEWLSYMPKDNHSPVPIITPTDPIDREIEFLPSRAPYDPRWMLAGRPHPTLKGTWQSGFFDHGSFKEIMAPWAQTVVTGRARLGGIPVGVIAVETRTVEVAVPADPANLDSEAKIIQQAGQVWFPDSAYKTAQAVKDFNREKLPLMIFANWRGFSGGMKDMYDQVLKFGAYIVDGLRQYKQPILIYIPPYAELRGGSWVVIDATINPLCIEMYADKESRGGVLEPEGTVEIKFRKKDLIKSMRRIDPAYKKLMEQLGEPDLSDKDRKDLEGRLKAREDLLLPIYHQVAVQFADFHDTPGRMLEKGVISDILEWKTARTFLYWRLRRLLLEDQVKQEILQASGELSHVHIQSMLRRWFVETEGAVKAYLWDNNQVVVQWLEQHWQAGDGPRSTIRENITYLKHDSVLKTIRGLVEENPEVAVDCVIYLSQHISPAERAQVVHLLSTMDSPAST
row,SMILES,IC50
1,CC(=O)N[C@@H](C)c1ccc(O[C@@H]2CCN(c3nc(N4CCC(F)(F)C4)ncc3Cl)C2)cc1 [Example 8.128],278 nM
2,CC(=O)N[C@@H](C)c1ccc(O[C@@H]2CCN(c3ncnc(N4CCCC4)c3F)C2)cc1 [Example 8.129],67 nM
3,COCCN(C)c1ncc(Cl)c(N2CC[C@@H](Oc3ccc([C@H](C)NC(C)=O)cc3)C2)n1 [Example 8.130],79 nM
4,CC(=O)N[C@@H](C)c1ccc(O[C@@H]2CCN(c3nc(N(C)CCC#N)ncc3Cl)C2)cc1 [Example 8.131],461 nM
5,CC(=O)N[C@@H](C)c1ccc(O[C@@H]2CCN(c3ncnc(N(C)CC(F)F)c3F)C2)cc1 [Example 8.132],206 nM
6,CC(=O)N[C@@H](C)c1ccc(O[C@@H]2CCN(c3ncnc(N(C)C4CC4)c3F)C2)cc1 [Example 8.133],299 nM
7,COCCN(C)c1ncnc(N2CC[C@@H](Oc3ccc([C@H](C)NC(C)=O)cc3)C2)c1F [Example 8.134],208 nM
8,CC(=O)N[C@@H](C)c1ccc(O[C@@H]2CCN(c3ncnc(N(C)C(C)C)c3F)C2)cc1 [Example 8.135],131 nM
9,CC(=O)N[C@@H](C)c1ccc(O[C@@H]2CCN(c3nc(N(C)CC(F)F)ncc3Cl)C2)cc1 [Example 8.136],70 nM
10,CC(=O)N[C@@H](C)c1ccc(O[C@@H]2CCN(c3ncnc(N(C)CCC#N)c3F)C2)cc1 [Example 8.137],672 nM
11,CC(=O)N[C@@H](C)c1ccc(O[C@@H]2CCN(c3ncnc(N4CCCCC4)c3F)C2)cc1 [Example 8.138],105 nM
12,CC(=O)N[C@@H](C)c1ccc(O[C@@H]2CCN(c3ncnc(N4CCC(C)C4)c3F)C2)cc1 (some centres unmarked) [Example 8.139],49 nM
13,CC(=O)N[C@@H](C)c1ccc(O[C@@H]2CCN(c3ncnc(N4CCC(F)(F)C4)c3F)C2)cc1 [Example 8.140],109 nM
14,CC(=O)N[C@@H](C)c1ccc(O[C@@H]2CCN(c3nc(N(C)C(C)C)ncc3Cl)C2)cc1 [Example 8.141],148 nM
15,CC(=O)N[C@@H](C)c1ccc(O[C@@H]2CCN(c3nc(N4CCC(C)C4)ncc3Cl)C2)cc1 (some centres unmarked) [Example 8.142],138 nM
16,CC(=O)N[C@@H](C)c1ccc(O[C@@H]2CCN(c3ncnc(N4CCOCC4)c3F)C2)cc1 [Example 8.143],429 nM
17,CCCN(C)c1ncnc(N2CC[C@@H](Oc3ccc([C@H](C)NC(C)=O)cc3)C2)c1F [Example 8.144],104 nM
18,CC(=O)N[C@@H](C)c1ccc(O[C@@H]2CCN(c3nc(N(C)C4CC4)ncc3Cl)C2)cc1 [Example 8.145],93 nM
19,CC(=O)N[C@@H](C)c1ccc(O[C@@H]2CCN(c3nc(N4C[C@@H]5C[C@H]4CO5)ncc3Cl)C2)cc1 [Example 8.146],984 nM
20,CC(=O)N[C@@H](C)c1ccc(O[C@@H]2CCN(c3ncnc(N4C[C@@H]5C[C@H]4CO5)c3F)C2)cc1 [Example 8.147],2320 nM
21,CC(=O)N[C@@H](C)c1ccc(O[C@@H]2CCN(c3ncnc(N(C)C[C@H]4CCCO4)c3F)C2)cc1 [Example 8.148],198 nM
22,CCN(CCC#N)c1ncc(Cl)c(N2CC[C@@H](Oc3ccc([C@H](C)NC(C)=O)cc3)C2)n1 [Example 8.149],387 nM
23,COC[C@@H](C)N(C)c1ncc(F)c(N2CC[C@@H](Oc3ccc([C@H](C)NC(C)=O)cc3)C2)n1 [Example 8.150],159 nM

row,SMILES,IC50
1,CC(=O)N[C@@H](C)c1ccc(O[C@@H]2CCN(c3nc(N4CCCC4(C)C)ncc3Cl)C2)cc1 [Example 8.152],215 nM
2,COC1CCN(c2ncc(Cl)c(N3CC[C@@H](Oc4ccc([C@H](C)NC(C)=O)cc4)C3)n2)CC1 [Example 8.153],679 nM
3,CC(=O)N[C@@H](C)c1ccc(O[C@@H]2CCN(c3nc(N4CCCC4C)ncc3Cl)C2)cc1 (some centres unmarked) [Example 8.154],103 nM
4,CC(=O)N[C@@H](C)c1ccc(O[C@@H]2CCN(c3nc(N4C[C@@H]5C[C@H]4CO5)ncc3F)C2)cc1 [Example 8.155],613 nM
5,CC(=O)N[C@@H](C)c1ccc(O[C@@H]2CCN(c3nc(N4CCC(C)(O)C4)ncc3F)C2)cc1 (some centres unmarked) [Example 8.156],153 nM
6,CC(=O)N[C@@H](C)c1ccc(O[C@@H]2CCN(c3nc(N(C)C4CCOCC4)ncc3F)C2)cc1 [Example 8.157],105 nM
7,CC(=O)N[C@@H](C)c1ccc(O[C@@H]2CCN(c3nc(N(C)CCC(F)(F)F)ncc3F)C2)cc1 [Example 8.158],56 nM
8,CC(=O)N[C@@H](C)c1ccc(O[C@@H]2CCN(c3ncnc(N(C)CCC(F)(F)F)c3F)C2)cc1 [Example 8.159],151 nM
9,CC(=O)N[C@@H](C)c1ccc(O[C@@H]2CCN(c3ncnc(N4CCCC(F)(F)C4)c3F)C2)cc1 [Example 8.161],384 nM
10,CC(=O)N[C@@H](C)c1ccc(O[C@@H]2CCN(c3ncnc(N4CC[C@@H](F)C4)c3F)C2)cc1 [Example 8.162],476 nM
11,CC(=O)N[C@@H](C)c1ccc(O[C@@H]2CCN(c3cc(N4CCOCC4C)ncn3)C2)cc1 (some centres unmarked) [Example 8.163],469 nM
12,CC(=O)N[C@@H](C)c1ccc(O[C@@H]2CCN(c3nc(N(C)CC(C)C)ncc3F)C2)cc1 [Example 8.164],102 nM
13,CC(=O)N[C@@H](C)c1ccc(O[C@@H]2CCN(c3nc(N(C)C[C@@H]4CCCO4)ncc3F)C2)cc1 [Example 8.165],75 nM
14,CC(=O)N[C@@H](C)c1ccc(O[C@@H]2CCN(c3nc(N(C)C4CCCOC4)ncc3F)C2)cc1 (some centres unmarked) [Example 8.166],105 nM
15,COCCCN(C)c1ncc(F)c(N2CC[C@@H](Oc3ccc([C@H](C)NC(C)=O)cc3)C2)n1 [Example 8.167],101 nM
16,COCCCN(C)c1ncc(Cl)c(N2CC[C@@H](Oc3ccc([C@H](C)NC(C)=O)cc3)C2)n1 [Example 8.168],173 nM
17,CC(=O)N[C@@H](C)c1ccc(O[C@@H]2CCN(c3ccnc(N(C)CC(C)C)n3)C2)cc1 [Example 8.171],175 nM
18,CC(=O)N[C@@H](C)c1ccc(O[C@@H]2CCN(c3ncnc(N4CC5COCC5C4)c3F)C2)cc1 (some centres unmarked) [Example 8.172],675 nM
19,CC(=O)N[C@@H](C)c1ccc(O[C@@H]2CCN(c3nc(N4[C@H](C)CCC[C@H]4C)ncc3Cl)C2)cc1 [Example 8.173],155 nM
20,CC(=O)N[C@@H](C)c1ccc(O[C@@H]2CCN(c3nc(N4CCOC(C(F)(F)F)C4)ncc3Cl)C2)cc1 (some centres unmarked) [Example 8.174],170 nM
21,CC(=O)N[C@@H](C)c1ccc(O[C@@H]2CCN(c3nc(N4CCc5nocc5C4)ncc3Cl)C2)cc1 [Example 8.175],1380 nM
22,CC(=O)N[C@@H](C)c1ccc(O[C@@H]2CCN(c3ncnc(N4CCOC(C)(C)C4)c3F)C2)cc1 [Example 8.176],683 nM
23,COC[C@H](C)N(C)c1ncnc(N2CC[C@@H](Oc3ccc([C@H](C)NC(C)=O)cc3)C2)c1F [Example 8.177],476 nM

row,SMILES,IC50
1,CCN(CCO)c1ncc(Cl)c(N2CC[C@@H](Oc3ccc([C@H](C)NC(C)=O)cc3)C2)n1 [Example 8.178],389 nM
2,CC(=O)N[C@@H](C)c1ccc(O[C@@H]2CCN(c3ncnc(N4CCOC(C)C4)c3F)C2)cc1 (some centres unmarked) [Example 8.179],358 nM
3,CC(=O)N[C@@H](C)c1ccc(O[C@@H]2CCN(c3ccnc(N(C)C4CCCOC4)n3)C2)cc1 (some centres unmarked) [Example 8.180],278 nM
4,CC(=O)N[C@@H](C)c1ccc(O[C@@H]2CCN(c3nc(N4CC[C@@H](F)C4)ncc3F)C2)cc1 [Example 8.181],531 nM
5,COC[C@H]1CCCN1c1ncc(F)c(N2CC[C@@H](Oc3ccc([C@H](C)NC(C)=O)cc3)C2)n1 [Example 8.182],1120 nM
6,CC(=O)N[C@@H](C)c1ccc(O[C@@H]2CCN(c3nc(N4CCC(CO)C4)ncc3F)C2)cc1 (some centres unmarked) [Example 8.183],807 nM
7,CC(=O)N[C@@H](C)c1ccc(O[C@@H]2CCN(c3nc(N4CC[C@H](F)C4)ncc3F)C2)cc1 [Example 8.184],220 nM
8,CC(=O)N[C@@H](C)c1ccc(O[C@@H]2CCN(c3nc(N(C)CC(C)O)ncc3Cl)C2)cc1 (some centres unmarked) [Example 8.185],753 nM
9,CC(=O)N[C@@H](C)c1ccc(O[C@@H]2CCN(c3nc(N4CCOC(C)C4)ncc3Cl)C2)cc1 (some centres unmarked) [Example 8.186],204 nM
10,CC(=O)N[C@@H](C)c1ccc(O[C@@H]2CCN(c3nc(N4CCC(F)(F)CC4)ncc3Cl)C2)cc1 [Example 8.187],220 nM
11,COC[C@@H]1CCN(c2ncc(Cl)c(N3CC[C@@H](Oc4ccc([C@H](C)NC(C)=O)cc4)C3)n2)C1 [Example 8.188],118 nM
12,CC(=O)N[C@@H](C)c1ccc(O[C@@H]2CCN(c3nc(N4CCCC(F)(F)C4)ncc3Cl)C2)cc1 [Example 8.189],319 nM
13,CC(=O)N[C@@H](C)c1ccc(O[C@@H]2CCN(c3nc(N(C)C4CCC4)ncc3F)C2)cc1 [Example 8.190],41 nM
14,CC(=O)N[C@@H](C)c1ccc(O[C@@H]2CCN(c3nc(N4CCC(C)(C)C4)ncc3Cl)C2)cc1 [Example 8.191],222 nM
15,CC(=O)N[C@@H](C)c1ccc(O[C@@H]2CCN(c3nc(N(C)CCOC(C)(C)C)ncc3Cl)C2)cc1 [Example 8.192],640 nM
16,COC1CCN(c2ncc(F)c(N3CC[C@@H](Oc4ccc([C@H](C)NC(C)=O)cc4)C3)n2)CC1 [Example 8.193],229 nM
17,CC(=O)N[C@@H](C)c1ccc(O[C@@H]2CCN(c3nc(N4CCC(C)(C)C4)ncc3F)C2)cc1 [Example 8.194],128 nM
18,CC(=O)N[C@@H](C)c1ccc(O[C@@H]2CCN(c3ccnc(N(C)C4CCOCC4)n3)C2)cc1 [Example 8.195],393 nM
19,CC(=O)N[C@@H](C)c1ccc(O[C@@H]2CCN(c3ccnc(N4CC=CC4)n3)C2)cc1 [Example 8.196],277 nM
20,COC[C@H]1CCCN1c1ncnc(N2CC[C@@H](Oc3ccc([C@H](C)NC(C)=O)cc3)C2)c1F [Example 8.197],733 nM
21,CC(=O)N[C@@H](C)c1ccc(O[C@@H]2CCN(c3ncnc(N4CCOC(C(F)(F)F)C4)c3F)C2)cc1 (some centres unmarked) [Example 8.198],549 nM
22,CC(=O)N[C@@H](C)c1ccc(O[C@@H]2CCN(c3ncnc(N4CCC(C)(C)C4)c3F)C2)cc1 [Example 8.199],85 nM
